# Test results from ChEMBL document CHEMBL2040728, “New substituted 4H-chromenes as anticancer agents” (Bioorg Med Chem Lett, 2012).
# Active and inactive are the calls of the source. The rule behind the calls is not given here.
# Columns and labels:
# Bos taurus [1] = organism: Bos taurus; assay: Inhibition of bovine brain tubulin polymerization at 5 uM after 20 mins by spectrophotometric analysis relative to control
# LNCaP = assay: Antiproliferative activity against human LNCAP cells after 96 hrs by SRB assay; assay type: functional, cell-based
# PC-3 = assay: Antiproliferative activity against human PC3 cells after 96 hrs by SRB assay; assay type: functional, cell-based; settings: PC-3, 96 h
# A-375 = assay: Antiproliferative activity against human A375 cells after 48 hrs by SRB assay; assay type: functional, cell-based; settings: A-375, 48 h
# [2] = Antiproliferative activity against human WM164 cells after 48 hrs by SRB assay; assay type: functional, cell-based; settings: WM164, 48 h
# [3] = Antiproliferative activity against human paclitaxel-resistant PC3-TxR cells after 96 hrs by SRB assay; assay type: functional, cell-based
# Bos taurus [4] = organism: Bos taurus; assay: Inhibition of bovine brain tubulin polymerization at 20 uM after 20 mins by spectrophotometric analysis
# Bos taurus [5] = organism: Bos taurus; assay: Inhibition of bovine brain tubulin polymerization at 10 uM after 20 mins by spectrophotometric analysis
# [6] = Antiproliferative activity against human U87 cells after 5 days by MTT assay; assay type: functional, cell-based, U-87MG ATCC; settings: U-87 MG, 120 h
# T98G = assay: Antiproliferative activity against human T98G cells after 5 days by MTT assay; assay type: functional, cell-based; settings: 120 h
# [7] = Antiproliferative activity against human LN18 cells after 5 days by MTT assay; assay type: functional, cell-based; settings: LN-18, 120 h
# [8] = Antiproliferative activity against human A172 cells after 5 days by MTT assay; assay type: functional, cell-based; settings: A 172, 120 h
# [9] = Cytotoxicity against mouse primary astrocytes after 5 days by MTT assay; assay type: cell-based; settings: Astrocyte, 120 h
# Bos taurus [10] = organism: Bos taurus; assay: Inhibition of bovine brain tubulin polymerization after 20 mins by spectrophotometric analysis
Structure (SMILES),inhibition (Bos taurus [1]),IC50 (LNCaP) [nM],IC50 (PC-3) [nM],IC50 (A-375) [nM],IC50 [2] [nM],IC50 [3] [nM],inhibition (Bos taurus [4]) [%],inhibition (Bos taurus [5]) [%],IC50 [6] [nM],IC50 (T98G) [nM],IC50 [7] [nM],IC50 [8] [nM],IC50 [9] [nM],inhibition (Bos taurus [10])
CC(=O)O[C@H]1C(=O)[C@@]2(C)[C@H]([C@H](OC(=O)c3ccccc3)[C@]3(O)C[C@H](OC(=O)[C@H](O)[C@@H](NC(=O)c4ccccc4)c4ccccc4)C(C)=C1C3(C)C)[C@]1(OC(C)=O)CO[C@@H]1C[C@@H]2O,inactive,,,,,,,,,,,,,
CN(C)c1ccc2c(c1)OC(N)=C(C#N)C2c1cccc2c(Br)cccc12 (centres undefined),,280,390,140,220,210,,,,,,,,
CN(C)c1ccc2c(c1)OC(N)=C(C#N)C2c1ccc(N(C)C)c2ccccc12 (centres undefined),,140,220,80,160,230,68,29,20.6,12.5,13.3,7.4,2030,Dose-dependent effect
CN(C)c1ccc2c(c1)OC(N)=C(C#N)C2c1ccc(F)c2ccccc12 (centres undefined),,410,640,280,470,290,,,,,,,,
